# Legend:
# [1] = system: LMP1 dependent upregulation of PML NBs; test: Transfection/inhibitor studies of LMP1 upregulation of PML NBs; type: cell-based
# Experimental: A series of transfection/inhibitor studies were carried out to investigate the mechanism of upregulation of the PML-NB by LMP1. […] Either inhibition of ERK phosphorylation by U0126 or Stat3 dimerization by Stattic, however, prevented the LMP1 dependent upregulation of PML NBs.
# [2] = system: nonmalignant blood mononuclear cells from normal donors; conditions: cited from earlier work
# [3] = system: APL and non-APL cell lines; conditions: Konig et al., 1997; cited from earlier work
# LCL<EBV1-13> cells = type: cell-based, human
# CNE1<EBV BX1> tumors = test: CNE1<EBV BX1> nasopharyngeal carcinoma xenograft, tumor volume; type: in vivo, male nude mice; conditions: 21 days of once daily treatment; GCV 100 μg/g, ATO 100 ng/g; carrier control just under double
# [4] = system: uninfected parental A549 cells; conditions: 4 days, 10 nM ATO, 40 μM GCV
# EBV Zta mRNA = type: cell-based, Epstein-Barr virus
# EBV BMRF1 mRNA = type: cell-based, Epstein-Barr virus; conditions: 10 nM ATO and/or 40 μM GCV
# EBV Zta protein = type: in vivo, male nude mice; conditions: mouse, in vivo
smiles,measurement,setting,value
Cc1ccc(NCCCc2ccccc2)c(N)c1 [JSH23],effect on LMP1 upregulation of PML NBs,[1],did not affect
"C[As](C)SC[C@H](NC(=O)CC[C@H](N)C(=O)O)C(=O)NCC(=O)O [SGLU1, S-(dimethylarsino) glutathione]",toxicity against nonmalignant blood mononuclear cells,[2],low toxicity
"Nc1nc(N)nc(Nc2ccc([As]3SCC(CO)S3)cc2)n1 (centres unmarked) [Melarsoprol, melarsoprol]",activity against APL and non-APL cell lines,[3],at least equivalent to that of arsenic trioxide
N#CC(=C(/N)Sc1ccccc1N)/C(C#N)=C(\N)Sc1ccccc1N [U0126],effect on LMP1 upregulation of PML NBs,[1],prevented
O=[N+]([O-])c1ccc2c(c1)S(=O)(=O)C=C2 [Stattic],effect on LMP1 upregulation of PML NBs,[1],prevented
"Nc1nc2c(ncn2COC(CO)CO)c(=O)[nH]1 [GCV, 9-[[2-hydroxy-1-(hydroxymethyl)-ethoxy]methyl]guanine]",viable cells after a third day of treatment compared with two days,LCL<EBV1-13> cells,did not result in reducing the number of viable cells
same,tumor size increase over size at day 7 (pre-treatment),CNE1<EBV BX1> tumors,approximately 25%
same,viability of uninfected parental cells,[4],did not affect the viability
same,Zta mRNA expression over 7 days,EBV Zta mRNA,no effect
same,BMRF1 mRNA expression over 7 days,EBV BMRF1 mRNA,no effect
same,Zta expression in tumor explant tissue,EBV Zta protein,Only the occasional Zta positive cell

# Reference: patent US20140017336A1, “CO-ADMINISTRATION OF ARSENIC COMPOUNDS AND ANTI-HERPES VIRUS ANTI-VIRALS” (priority 2011, published 2014)
